# Measurements from patent US20070207160A1, “Apoptosis inhibitors” (priority 1994, published 2007).
# B1: fused portion of Example 1: Fusion protein in which an extracellular APO-1 domain is fused via an antibody-hinge region to an Fc portion of a human antibody (protein)
# chain: QVTDINSKGLELRKTVTTVETQNLEGLHHDGQFCHKPCPPGERKARDCTVNGDEPDCVPCQEGKEYTDKAHFSSKCRRCRLCDEGHGLEVEINCTRTQNTKCRCKPNFFCNSTVCEHCDPCTKCEHGIIKECTLTSNTKCKEEGSRSN
# modifications: left off: a dimerising Fc or GST
# notes: Fusion protein in which an extracellular APO-1 domain is fused via an antibody-hinge region to an Fc portion of a human antibody
# How the values were obtained:
# Assay type in all cases: cell-based
# L 29-APO-1 cells = assay: Inhibition of apoptosis induced by an anti-APO-1 antibody using DCI (MTT assay); conditions: DCI 45 μM or 15 μM, 1 hour before anti-APO-1 antibody for 7 hours, FIG. 2B
# Description: FIG. 2B depicts the inhibition of apoptosis by DCI. L 29-APO-1 cells were incubated with DCI (●45μM, ▴15 μM) or without DCI (◯). After one hour, anti-APO-1 antibody was added in the amounts indicated in FIG. 2B and allowed to remain on the cells for 7 hours. The percentage cell death was determined by formazan production from diphenyltetrazolium salt (MTT assay).
# [1] = system: L 29-APO-1 cells and SKW 6.4 cells; assay: Inhibition of apoptosis induced by an anti-APO-1 antibody using YVAD-CHO (DNA fragmentation, Hoechst dye 33342, FACS); conditions: permeabilized L 29-APO-1 and SKW 6.4 cells, YVAD-CHO 30 minutes, then anti-APO-1 antibodies 1 μg/ml for 60 minutes; FIG. 2C
# Description: FIG. 2C depicts the inhibition of apoptosis by YVAD-CHO.
# L 29-APO-1 cells (◯) and SKW 6.4 cells (●) were permeabilized by a short hypotonic shock and incubated with the indicated concentrations of YVAD-CHO indicated in FIG. 2C for 30 minutes. The cells were incubated with anti-APO-1 antibodies (1 μg/ml) for 60 minutes. Apoptosis was determined by measuring a DNA fragmentation using the Hoechst dye 33342 (Molecular Probes Eugene, Oreg.). Data of specific cell death (cell death in the presence of an anti-APO-1 antibody minus cell death in the absence of such an antibody) was obtained from triple measurements by using an FACS Vantage flow cytometer. Spontaneous cell death in the absence of an anti-APO-1 antibody was less than 7%.
# SKW 6.4 cells = assay: Inhibition of apoptosis induced in SKW 6.4 cells by anti-APO-1 antibody; conditions: SKW 6.4 cells incubated with anti-APO-1 antibody (20 ng/ml) and varying amounts of inhibitor for 24 hours, FIG. 1
# Description: FIG. 1 depicts the inhibition of apoptosis induced in SKW6.4 cells by means of anti-APO-1 antibodies (20 ng/ml) by human APO-1-Ig and anti-APO-1F(ab′)2, respectively.
# SKW 6.4 cells (Oehm et al, supra) are apoptosis-positive cells, i.e. apoptosis can be induced therein, e.g. by binding an anti-APO-1 antibody.
# SKW 6.4 cells were incubated with an anti-APO-1 antibody in the presence of varying amounts of the fusion protein of Example 1 (human APO-1-Ig) and of anti-APO-1-F(ab)2 (see above), respectively, for 24 hours. The inhibition of apoptosis was determined. See, FIG. 1.
molecule,measurement,setting,value
"O=c1oc(Cl)c(Cl)c2ccccc12 [DCI, 3,4-dichloroisocoumarin]","inhibition of apoptosis induced by an anti-APO-1 antibody (percentage cell death, MTT assay)",L 29-APO-1 cells,can be inhibited
YVAD-CHO,"inhibition of apoptosis induced by an anti-APO-1 antibody (specific cell death, DNA fragmentation)",[1],can be inhibited
B1,inhibition of apoptosis,SKW 6.4 cells,strong apoptosis-inhibiting effect
same,inhibition of apoptosis,SKW 6.4 cells; listed as fusion protein,especially strong
